US9364462B2, “Alpha-1-adrenergic receptor agonist therapy” (The Regents of the University of California, priority 2012, dated 2016)

Tests used:
neurons in brain slices = test: Adult mouse brain slices injured with H2O2 ex vivo; type: cell-based; details: H2O2, 2 h
Procedure: FIG. 13. Brain slice model to study alpha-1A agonist in vitro. Thin brain slices were injured with hydrogen peroxide (H2O2), which simulates most forms of ischemic and traumatic injury at the cell level, in the presence or absence of A61603. After 2 hr, dead neurons (PI) and living neurons (ATP) were measured.
FIG. 14. A61603 protects neurons in brain slices from oxidative injury in vitro. Slices were treated with H2O2 or vehicle (Veh) for 2 hr, in the presence of A61603, or absence (Veh).
Studies were conducted in mice looking at alpha-1 agonist therapy, using A61603, in a model of traumatic brain injury. Alpha-1-ARs are 10 times more abundant in neurons than in cardiac myocytes, and the alpha-1A subtype is the most abundant. […]
Alpha-1A-adrenergic receptors (α1A-ARs) have a protective trophic role in the heart. α1A-AR levels are high in the brain, and neuroprotection by norepinephrine is known. […] Ex vivo, we quantified ATP levels (marker for survival) in mouse brain slices injured by 10μ, M H2O2 and treated for 2 h with A61603 (a1A-AR specific agonist) or Vehicle. We quantified the number of dead neurons (propidium iodide (PI) positive) out of total (NeuN positive) in the same treated slices by immunohistochemistry (IHC). In vivo, we measured brain infarct size (BrdU-positive glial cells) after transient focal ischemia and reperfusion (IR) in α1ABKO and WT mice. […]

[1] = 1 week subcutaneous infusion (osmotic minipump) in adult mice: BP and heart signaling; type: in vivo, mouse
Procedure: FIG. 5. A61603 activates heart signaling at a BP-neutral dose. A61603 was infused subcutaneously (osmotic minipump) for 1 week in adult mice, and BP was measured daily. There was no change in average BP at the low dose, in agreement with the intravenous (IV) route in another study, and with phenylephrine (PE) given in humans (left side). BP effects of A61603 are absent in the alpha-1A KO (AKO), again showing the selectivity of the drug for that receptor (left). At the end of 1 week, the heart was removed to measure ERK activation, and increases in heart mRNAs and area (size), reflecting protective (ERK) adaptive (mRNAs, area) effects on heart muscle cells. A61603 at the low dose of 10 ng/kg/d increased these endpoints.
The classic effect of alpha-1-agonists is to increase BP by stimulating smooth muscle cells to contract. It could be a disadvantage in heart failure (HF) therapy to increase BP excessively. On the other hand, all current recommended drugs in HF reduce BP, and a drug that increased BP slightly might have a strong therapeutic advantage. […] The foregoing experiments provided the rationale to test treatment with A61603 at 10 ng/kg/d in a mouse model of cardiomyopathy and HF.

[2] = tested on: neonatal rat cardiac muscle cells; test: Protein synthesis in neonatal rat cardiac muscle cells in vitro; type: cell-based; details: FIG. 2 (neonatal rat) and FIG. 20
Source text: FIG. 2. A61603 is adaptive in neonatal cardiac muscle cells.
FIG. 20. A61603 is adaptive in cardiac muscle cells.

α1AR = details: Evans et al. (2011); cited from earlier work
[3] = Traumatic brain injury (TBI) by cortical impact, MRI; type: in vivo, mouse; details: 4 weeks treatment, vs vehicle
Source text: FIG. 16. The alpha-1A agonist A61603 reduces the amount of brain damage after TBI, quantified by MRI. Mice had TBI by cortical impact, followed by 4 weeks treatment with A61603 or vehicle. MRI was done to identify viable brain (dark) and fluid-filled areas of lost brain tissue (bright) (left). The volume of dead brain was 50% less with A61603 (red, right).
To test this, we used a mouse model of traumatic brain injury (TBI), produced by a piston impact on the cerebral cortex, done through a hole in the skull. TBI is a clinical problem of great and growing importance.
We tested the model in the alpha-1A knockout (KO) mouse. TBI in the alpha-1A KO caused the worst damage, compared with normal mice and mice with the alpha-1B KO (FIG. 15). We tested A61603 in normal wild type mice, using the same low BP-neutral dose employed in the cardiac studies, 10 ng/kg/d. The protocol was a prevention trial, and the end-point was magnetic resonance imaging (MRI), which can quantify the amount of dead and viable brain tissue in the living subject (e.g. mouse, human) non-invasively. A61603 reduced the amount of dead brain tissue after TBI (FIG. 16).

CS(=O)(=O)Nc1c(O)ccc2c1CCCC2C1=NCCN1 (stereo not shown) [A61603, N-[1-(4,5-dihydro-1H-imidazol-2-yl)-6-hydroxy-tetralin-5-yl]methanesulfonamide]
ATP levels after H2O2 (neurons in brain slices; N=2, vehicle 5.5±0.5): 8±1 nmol/mg protein
number of dead neurons caused by H2O2 (PI positive out of total NeuN positive) (neurons in brain slices; N=2, vehicle 86±5.3): 46±0.3
heart ERK activation ([1]; 10 ng/kg/d, end of 1 week): increased
heart area (size) ([1]; 10 ng/kg/d, end of 1 week): increased
heart mRNAs ([1]; 10 ng/kg/d, end of 1 week): increased
BP effects in alpha-1A KO (AKO) ([1]; alpha-1A KO mice, subcutaneous infusion 1 week): absent
average BP ([1]; low dose, subcutaneous infusion 1 week, BP measured daily): no change
activation of protein synthesis [2]: high efficacy and potency
cAMP accumulation through α1AR relative to cirazoline (α1AR): stronger stimulator
volume of dead brain, less with A61603 [3]: 50%
